Like-named read-outs stand apart in the source and are kept apart here. Marks after values point to notes of the source that are not given here.
How the values were obtained:
[1] = test system: rat embryos explanted at GD 9.5; assay: Postimplantation whole embryo culture (postWEC); parameters: species or system Sprague Dawley rats; key to Yolk sac circulation (median): 1 = few/abnormal vessels, 2 = delayed, 3 = complete vascularization; key to Morphological score: sum of structure scores; higher = more advanced differentiation; settings: for Crown-rump length / Dysmorphogenic embryos / Morphological score / Somites number / Yolk sac circulation (median): 48 h; for postWEC LOAEC / postWEC NOAEC: GD 9.5-11.5, 48 h; for Teratogenic/dysmorphogenic potency, times lower than ABZ: postimplantation rodent embryos
Protocol: Nulliparous female rats, which were checked to be in the oestrus phase of the oestrous cycle, were housed with adult males (1:1) for 4 h, considering 2 h of light and 2 h of darkness. Mating was confirmed by the presence of sperm in vaginal smear, and the following 24 h were considered as gestational day 0 (GD 0).
Rat embryos were explanted and evaluated as described before with some variations. Briefly, embryos were explanted at GD 9.5 under sterile conditions. Two embryos were incorporated in flasks filled with 3.5 mL of culture medium which contained 20% of rat serum and 80% of serum mixture (Biochrom AG; Berlin, Germany). TCBZ, TCBZSO, ABZ and ABZSO were dissolved in dimethyl sulfoxide (DMSO; Sigma Aldrich Spain) and added to the culture medium to a final DMSO concentration of 0.1%. Culture flasks were oxygenated at the beginning of the culture with a gas mixture containing 12% O2 and after 38 h with a gas mixture containing 50% O2. Embryos were cultured at a temperature of 38°C, under rotation at a speed of 25 rpm (Noria R, Ovan Spain) for 48 h. After this period, embryos presenting yolk sac circulation and heartbeat were considered alive and were selected for further evaluation. The yolk sac circulation was evaluated according to the level of formation of blood vessels, giving a score of 1 in the cases in which few vessels were observed or the vascularization was abnormal, a score of 2 when a delay in vascularization was observed and 3 for complete vascularization, as previously described in [35]. Growth evaluation was assessed by crown-rump length and differentiation was evaluated by counting the number of somites and the morphological score. This score is the sum of the scores given to several embryonic structures depending on their differentiation stage, corresponding higher values with higher stages of differentiation. Furthermore, the percentage of dysmorphogenesis was calculated according to [36].
For the postWEC experiments, the selected concentrations were 140 μM, 278 μM and 556 μM for TCBZ and 267 μM, 666 μM and 932 μM for TCBZSO. The tested concentrations for ABZ analysis were 0.4 μM, 1.1 μM and 1.9 μM and for ABZSO were 3.4 μM, 9 μM, 12 μM, 14 μM and 16 μM.

[2] = test system: mouse embryos at the one-cell stage; assay: Preimplantation whole embryo culture (preWEC); parameters: species or system B6CBAF1 mice; settings: for preWEC LOAEC (lethality): GD 0 to GD 4
Protocol: Female mice (6–12 weeks old) were superovulated by intraperitoneal injections of 5 IU of pregnant mare’s serum gonadotropin (Intervet, Spain) and 5 IU of human chorionic gonadotropin (Farma-Lepori, Spain), 48 h apart, and mated with adult males (2:1). Embryos at the one-cell stage were obtained 24 h after the second injection by tearing the oviducts in Hepes-buffered Chatot Ziomek Bavister medium with 150 U/ml hyaluronidase (HCZB) to dissociate the cumulus cells. Denuded embryos were then washed in HCZB and cultured for 96 h in drops of culture medium, potassium simplex optimized medium (KSOM) under oil at 37°C and 5% CO2, with or without the compounds of study. TCBZ and TCBZSO dissolved in DMSO were diluted in KSOM medium and the final DMSO concentration in the culture medium was […]. Control embryos were cultured in the presence of […]. Embryos were observed under the stereomicroscope every 24 h to assess if they were progressing normally until the blastocyst stage or, otherwise, they were arrested in a previous developmental stage. In each observation the number of embryos at the correct developmental stage (two-cells at 24 h, four-cells at 48 h, morula at 72 h and blastocyst at 96 h) were counted.
TCBZ and TCBZSO concentration ranges for the preWEC study were selected based on the results of the ZFET. The tested concentrations for this technique were 1 μM, 3 μM and 10 μM for TCBZ studies and 3 μM, 10 μM, 30 μM and 100 μM for TCBZSO studies.

[3] = humans, cited from earlier work

What does the source list for CSc1nc2cc(Cl)c(Oc3cccc(Cl)c3Cl)cc2[nH]1 [TCBZ, 5-chloro-6-(2,3-dichlorophenoxy)-2-(methylthio)benzimidazole]?
Crown-rump length ([1]; 140 μM): 3.5 ± 0.2 mm; Dysmorphogenic embryos ([1]; 140 μM): 0%; Morphological score ([1]; 140 μM): 39.0 ± 1.5; Somites number ([1]; 140 μM): 26.9 ± 1.1; Yolk sac circulation (median) ([1]; 140 μM): 3.0; Frequency of dysmorphogenesis: Branchial bars ([1]; 278 µM): 25%; Frequency of dysmorphogenesis: Flexion ([1]; 278 µM): 12.5%; Frequency of dysmorphogenesis: Head ([1]; 278 µM): 12.5%; Frequency of dysmorphogenesis: Otic vesicles ([1]; 278 µM): 12.5%; Frequency of dysmorphogenesis: Yolk sac ([1]; 278 µM): 62.5%; Crown-rump length ([1]; 278 μM): 3.2 ± 0.5 mm; Dysmorphogenic embryos ([1]; 278 μM): 62.5 ^* %; Morphological score ([1]; 278 μM): 35.1 ± 5.9; Somites number ([1]; 278 μM): 25.7 ± 2.0; Yolk sac circulation (median) ([1]; 278 μM): 1.0 ^*; Frequency of dysmorphogenesis: Branchial bars ([1]; 556 µM): 100%; Frequency of dysmorphogenesis: Flexion ([1]; 556 µM): 50%; Frequency of dysmorphogenesis: Head ([1]; 556 µM): 75%; Frequency of dysmorphogenesis: Heart ([1]; 556 µM): 12.5%; Frequency of dysmorphogenesis: Optic vesicles ([1]; 556 µM): 37.5%; Frequency of dysmorphogenesis: Yolk sac ([1]; 556 µM): 100%; Crown-rump length ([1]; 556 μM): 2.6 ± 0.6 mm; Dysmorphogenic embryos ([1]; 556 μM): 100%; Morphological score ([1]; 556 μM): 21.0 ± 3.0; Yolk sac circulation (median) ([1]; 556 μM): 1.0 ^*; postWEC LOAEC [1]: 278 µM; postWEC NOAEC [1]: 140 µM; Teratogenic/dysmorphogenic potency, times lower than ABZ [1]: approximately 250 times; Teratogenic/dysmorphogenic potency, times lower than ABZ ([1]; listed as Triclabendazole): 250 times; Lethality 2-cells 24 h ([2]; 1 μM): 4.2%; Lethality 4-cells 48 h ([2]; 1 μM): 8.3%; Lethality Blastocyst 96 h ([2]; 1 μM): 18.8%; Lethality Morula 72 h ([2]; 1 μM): 8.3%; Adverse effects in preimplantation embryos ([2]; 3 μM): did not produce any significant effect; Lethality 2-cells 24 h ([2]; 3 μM): 6.3%; Lethality 4-cells 48 h ([2]; 3 μM): 6.3%; Lethality Blastocyst 96 h ([2]; 3 μM): 20.8%; Lethality Morula 72 h ([2]; 3 μM): 10.4%; Lethality 2-cells 24 h ([2]; 10 μM): 18.4 ^* %; Lethality 4-cells 48 h ([2]; 10 μM): 24.5 ^* %; Lethality Blastocyst 96 h ([2]; 10 μM): 36.7%; Lethality Morula 72 h ([2]; 10 μM): 24.5 ^* %; preWEC LOAEC (lethality) [2]: 10 µM; Lethal concentration in preimplantation embryos, times higher than in vivo relevant concentrations ([2]; preWEC): 10 times; Cmax ([3]; therapeutical dose of 10 mg/kg TCBZ, reviewed by 22, read-out: TCBZ Cmax in plasma): 1.16 µM

For C[S+]([O-])c1nc2cc(Oc3cccc(Cl)c3Cl)c(Cl)cc2[nH]1 (stereo not drawn) [TCBZSO, Triclabendazole sulfoxide], which Crown-rump length ([1]; 267 μM) is on record?
The Crown-rump length was 3.4 ± 0.4 mm.

And the Dysmorphogenic embryos ([1]; 267 μM)?
Its Dysmorphogenic embryos is 0%.

And the Morphological score ([1]; 267 μM)?
Its Morphological score is 37.9 ± 2.8.

What about the Somites number ([1]; 267 μM) of the same compound?
Its Somites number is 26.6 ± 1.6.

And the “Yolk sac circulation (median)” value ([1]; 267 μM)?
The value was 3.0.

And the “Frequency of dysmorphogenesis: Branchial bars” value ([1]; 666 µM)?
The value was 11.1%.

And the “Frequency of dysmorphogenesis: Head” value ([1]; 666 µM)?
The value was 33.3%.

What about the “Frequency of dysmorphogenesis: Optic vesicles” value ([1]; 666 µM) of the same compound?
Its value is 33.3%.

What about the “Frequency of dysmorphogenesis: Yolk sac” value ([1]; 666 µM) of the same compound?
Its value is 33.3%.

What about the Crown-rump length ([1]; 666 μM) of the same compound?
Its Crown-rump length is 3.1 ± 0.7 mm.

And the Dysmorphogenic embryos ([1]; 666 μM)?
The Dysmorphogenic embryos was 55.6 ^* %.

And the Morphological score ([1]; 666 μM)?
Its Morphological score is 30.8 ± 7.1.

What about the Somites number ([1]; 666 μM) of the same compound?
Its Somites number is 25.1 ± 2.1.

And the “Yolk sac circulation (median)” value ([1]; 666 μM)?
The value was 3.0 ^*.

What about the “Frequency of dysmorphogenesis: Branchial bars” value ([1]; 932 µM) of the same compound?
The value was 100%.

And the “Frequency of dysmorphogenesis: Flexion” value ([1]; 932 µM)?
Its value is 87.5%.

What about the “Frequency of dysmorphogenesis: Head” value ([1]; 932 µM) of the same compound?
The value was 75%.

And the “Frequency of dysmorphogenesis: Limbs” value ([1]; 932 µM)?
Its value is 12.5%.

What about the “Frequency of dysmorphogenesis: Optic vesicles” value ([1]; 932 µM) of the same compound?
Its value is 62.5%.

What about the “Frequency of dysmorphogenesis: Otic vesicles” value ([1]; 932 µM) of the same compound?
The value was 25%.

And the “Frequency of dysmorphogenesis: Yolk sac” value ([1]; 932 µM)?
Its value is 100%.

And the Crown-rump length ([1]; 932 μM)?
Its Crown-rump length is 2.3 ± 0.5 mm.

What about the Dysmorphogenic embryos ([1]; 932 μM) of the same compound?
The Dysmorphogenic embryos was 100 ^* %.

And the Morphological score ([1]; 932 μM)?
Its Morphological score is 20.3 ± 2.7.

What about the “Yolk sac circulation (median)” value ([1]; 932 μM) of the same compound?
Its value is 1.0 ^*.

What about the “postWEC LOAEC” value [1] of the same compound?
Its value is 666 µM.

And the “postWEC NOAEC” value [1]?
Its value is 267 µM.

And the “Teratogenic potency, times less potent than parent compound TCBZ” value ([1]; postWEC)?
The value was 2.5 times.

And the “Adverse effects in preimplantation embryos” value ([2]; 3 μM)?
Its value is “did not induce adverse effects”.

What about the “Lethality 2-cells 24 h” value ([2]; 3 μM) of the same compound?
The value was 4.2%.

What about the “Lethality 4-cells 48 h” value ([2]; 3 μM) of the same compound?
Its value is 14.6%.

What about the “Lethality Blastocyst 96 h” value ([2]; 3 μM) of the same compound?
Its value is 31.3%.

What about the “Lethality Morula 72 h” value ([2]; 3 μM) of the same compound?
The value was 16.7%.

What about the “Lethality 2-cells 24 h” value ([2]; 10 μM) of the same compound?
Its value is 24.5 ^* %.

What about the “Lethality 4-cells 48 h” value ([2]; 10 μM) of the same compound?
The value was 30.6 ^* %.

What about the “Lethality Blastocyst 96 h” value ([2]; 10 μM) of the same compound?
Its value is 55.1 ^* %.

What about the “Lethality Morula 72 h” value ([2]; 10 μM) of the same compound?
Its value is 36.7 ^* %.

What about the “Lethality 2-cells 24 h” value ([2]; 30 μM) of the same compound?
Its value is 24.5 ^* %.

And the “Lethality 4-cells 48 h” value ([2]; 30 μM)?
The value was 79.6 ^* %.

What about the “Lethality Blastocyst 96 h” value ([2]; 30 μM) of the same compound?
The value was 98 ^* %.

And the “Lethality Morula 72 h” value ([2]; 30 μM)?
Its value is 95.9 ^* %.

And the “Lethality 2-cells 24 h” value ([2]; 100 μM)?
The value was 100 ^* %.

And the “Lethality 4-cells 48 h” value ([2]; 100 μM)?
Its value is 100 ^* %.

What about the “Lethality Blastocyst 96 h” value ([2]; 100 μM) of the same compound?
The value was 100 ^* %.

And the “Lethality Morula 72 h” value ([2]; 100 μM)?
Its value is 100 ^* %.

And the “preWEC LOAEC (lethality)” value [2]?
The value was 10 µM.

What about the Cmax ([3]; 10 mg/kg TCBZ, depending on concomitant food intake, reviewed by 22, 10 mg/kg, read-out: TCBZSO Cmax in plasma) of the same compound?
The Cmax was 38.6 µM.

And the Cmax ([3]; 10 mg/kg TCBZ, calculated from ref 43, read-out: TCBZSO Cmax in plasma)?
Its Cmax is 26.6 µM.

Reference: article PMC4368200, “Triclabendazole Sulfoxide Causes Stage-Dependent Embryolethality in Zebrafish and Mouse In Vitro” (PLoS ONE, 2015)
